From patent US9174985B2, “Salts of 7-(2,3-di-p-tolyl-7,8-dihydropyrido[2,3-b]pyrazin-5(6H)-yl)heptanoic acid as IP receptor agonists” (Novartis AG, priority 2012, dated 2015)
Structures can show the parent of a compound that is named as a salt.

Columns and labels:
[1] = pH of a 1% solution/suspension in water; type: physicochemical; conditions: 10 mg salt in 1 mL water, ultrasound about 5 min, stirred one hour at RT, batch B, 24.3-25.2° C.
Method: A mixture of 10 mg salt and 1 mL water was treated about 5 min with ultrasound. Afterwards, the mixture was stirred for one hour at RT followed by pH measurement.

solubility = type: physicochemical; conditions: free form, in water
[2] = stability (physical stability, stability under light); type: physicochemical; conditions: for stability: free form, under light
[3] = system: human airway epithelial cells; conditions: human airway epithelial cells in vitro; cited from earlier work
dissolution rate = type: physicochemical; conditions: compared to the free form
β2-adrenoceptor = β2-adrenoceptor (Homo sapiens, UniProt P07550); conditions: cited from earlier work
β2-adrenoceptor, sequence (P07550 whole entry, species assumed): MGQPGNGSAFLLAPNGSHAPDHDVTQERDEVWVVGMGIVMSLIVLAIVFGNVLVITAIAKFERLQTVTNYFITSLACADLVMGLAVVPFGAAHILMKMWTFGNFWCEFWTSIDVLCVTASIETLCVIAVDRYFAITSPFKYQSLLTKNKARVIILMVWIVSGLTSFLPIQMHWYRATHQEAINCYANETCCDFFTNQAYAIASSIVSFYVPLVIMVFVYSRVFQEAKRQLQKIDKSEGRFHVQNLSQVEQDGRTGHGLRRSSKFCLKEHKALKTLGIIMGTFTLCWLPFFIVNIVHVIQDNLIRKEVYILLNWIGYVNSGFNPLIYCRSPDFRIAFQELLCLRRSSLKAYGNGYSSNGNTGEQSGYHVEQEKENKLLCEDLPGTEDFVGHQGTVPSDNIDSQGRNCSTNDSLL

former smokers = conditions: oral; cited from earlier work
rats = conditions: cited from earlier work
[4] = listed as free form of 7-(2,3-di-p-tolyl-7,8-dihydropyrido[2,3-b]pyrazin-5(6H)-yl)heptanoi

With `Cc1ccc(-c2nc3c(nc2-c2ccc(C)cc2)N(CCCCCCC(=O)O)CCC3)cc1` [Example 4, 7-(2,3-di-p-tolyl-7,8-dihydropyrido[2,3-b]pyrazin-5(6H)-yl)heptanoate hydrochloride] the “pH of a 1% solution/suspension in water” value ([1]; hydrochloride) was 2.3.

With `Cc1ccc(-c2nc3c(nc2-c2ccc(C)cc2)N(CCCCCCC(=O)O)CCC3)cc1` [7-(2,3-di-p-tolyl-7,8-dihydropyrido[2,3-b]pyrazin-5(6H)-yl)heptanoic acid] the solubility (solubility) was “poorly soluble in water”, the solubility (solubility; [4]) was “poor solubility” and the stability [2] was “low stability under light”. For the same compound, the stability [2, 4] was “poor solubility and stability”.

For `O=C(O)c1cccc(/C=C2/C[C@@H]3[C@@H](/C=C/[C@@H](O)C4CCCCC4)[C@H](O)C[C@@H]3O2)c1` [Taprostene], the “generation of the CD8+ T cell chemoattractants CXCL9 and CXCL10” value [3] is listed as “suppressed”.

With `CS(=O)(=O)O.Cc1ccc(-c2nc3c(nc2-c2ccc(C)cc2)N(CCCCCCC(=O)O)CCC3)cc1` [mesylate salt of 7-(2,3-di-p-tolyl-7,8-dihydropyrido[2,3-b]pyrazin-5(6H)-yl)heptanoic acid] the dissolution rate (dissolution rate) was “significantly higher dissolution rate compared to the free form”.

For `Cc1ccc(-c2nc3c(nc2-c2ccc(C)cc2)N(CCCCCCC(=O)O)CCC3)cc1` [Example 1, 7-(2,3-di-p-tolyl-7,8-dihydropyrido[2,3-b]pyrazin-5(6H)-yl)heptanoate sulfate], the physical stability [2] was “good” and the “pH of a 1% solution/suspension in water” value ([1]; sulfate) was 1.78.

With `Cc1ccc(-c2nc3c(nc2-c2ccc(C)cc2)N(CCCCCCC(=O)[O-])CCC3)cc1.[Na+]` [Example 3, 7-(2,3-di-p-tolyl-7,8-dihydropyrido[2,3-b]pyrazin-5(6H)-yl)heptanoate sodium] the physical stability [2] was “good”.

In the case of `CCc1cc2c(cc1CC)CC(NC[C@H](O)c1ccc(O)c3[nH]c(=O)ccc13)C2` [indacaterol, (R)-5-[2-(5,6-diethyl-indan-2-ylamino)-1-hydroxyethyl]-8-hydroxy-1H-quinolin-2-one], the duration of action (β2-adrenoceptor) is given as “over 24 hours” and the onset of action (β2-adrenoceptor) is given as “about 10 minutes”.

For `CC#CCC(C)[C@H](O)/C=C/[C@@H]1[C@H]2C/C(=C/CCCC(=O)O)C[C@H]2C[C@H]1O` (stereo partly shown) [iloprost], the endobronchial dysplasia (former smokers) is given as “significantly improved”.

In the case of `CC#CCC(C)[C@H](O)/C=C/[C@@H]1[C@H]2c3cccc(CCCC(=O)O)c3O[C@H]2C[C@H]1O` (mixture of isomers) [Beraprost], the “development of experimental cigarette smoke-induced emphysema” value (rats) is listed as “protected”.

For `Cc1ccc(-c2nc3c(nc2-c2ccc(C)cc2)N(CCCCCCC(=O)O)CCC3)cc1` [Example 2, 7-(2,3-di-p-tolyl-7,8-dihydropyrido[2,3-b]pyrazin-5(6H)-yl)heptanoate xinafoate], the photostability [2] was “good” and the “pH of a 1% solution/suspension in water” value [1] was 6.46.
